Experimental data reported in patent US12606533B2, “3-phenylpropylamine derivative” (DAIICHI SANKYO COMPANY, LIMITED, priority 2023, dated 2026).

Columns and labels:
SF-1 = biological target: T1, SF-1 (Homo sapiens, UniProt Q13285); assay: SF1 degradation induction in NCI-H295R SF-1-HiBiT cells (HiBiT DC50); type: cell-based; conditions: 24 hr, concentration that induces 50% degradation of SF-1
T1 construct: NCI-H295R SF-1-HiBiT cells with HiBiT tag knocked in at the endogenous SF1 locus; host or cells: NCI-H295R SF-1-HiBiT (knock-in at endogenous locus)
Description: NCI-H295R SF-1-HiBiT cells were seeded in a 384-well plate (Thermo Fisher Scientific Inc.) at 1×10^4 cells/50 μL/well and cultured at 37° C. in a 5% CO2 incubator for 24 hr. DMSO solutions of each compound were serially diluted with DMSO using a D300e Digital Dispenser (TECAN), added to a 384-well plate, and cultured in a 5% CO2 incubator at 37° C. for 24 hr. […] After completion of culture, the medium was discarded, and Nano-Glo (registered trade mark) HiBiT Lytic Detection System (Promega, Cat. No. N3040) was added at 20 μL/well and stirred with a plate mixer. Luminescence signals were then detected using a multimode plate reader (EnVision Xcite, PerkinElmer). The SF-1 protein degradation rate was calculated from the amount of luminescence (C) in the compound-free group and the amount of luminescence (T) in the compound-added group, based on the following formula.
The obtained data was analyzed using GraphPad Prism9 (GraphPad Software Inc.) or Genedata Screener (Genedata AG) to calculate the concentration that induces 50% degradation of SF-1 (DC50 value).

NCI-H295R cells = assay: Proliferation inhibitory action on NCI-H295R (CellTiter-Glo, 7 days); type: cell-based, human; conditions: Homo sapiens, NCI-H295R, 168 h
Description: DMSO solutions of each compound were serially diluted with DMSO using a D300e Digital Dispenser (TECAN), and added to a 384-well plate (Thermo Fisher Scientific Inc.). NCI-H295R cells were seeded in a 384-well plate at 2×10^3 cells/40 μL/well and cultured for 7 days in a 37° C., 5% CO2 incubator. […] On the first day of culture (day 0) and the seventh day of culture (day 7), 10 μL/well of CellTiter-Glo (registered trademark) 2.0 Assay (Promega) was added, and the luminescence signal was detected using a multimode plate reader (EnVision, PerkinElmer). The cell proliferation rate was calculated from the luminescence amount on the day of compound addition (CO), the luminescence amount of the compound-free group after 7 days of culture (C7), and the luminescence amount of the compound-added group (T7), based on the following formula.

| SMILES | DC50 (SF-1) | GI50 (NCI-H295R cells) |
| --- | --- | --- |
| COc1ccc([C@]2(CCN(Cc3ccc(C4=CC[C@H](C(=O)N5CCN(Cc6ccc7c(c6)n(C)c(=O)n7C6CCC(=O)NC6=O)CC5)CC4)c(F)c3)CC(C)(C)C(F)(F)F)CCOC(C)(C)C2)cc1 (stereo partly drawn) [BQ4, 3-{5-[(4-{[(4R)-2′-Fluoro-4′-{[{2-[(4R)-4-(4-methoxyphenyl)-2,2-dimethyltetrahydro-2H-pyran-4-yl]ethyl}(3,3,3-trifluoro-2,2-dimethylpropyl)amino]methyl}-2,3,4,5-tetrahydro[biphenyl]-4-yl]carbonyl}piperazin-1-yl)methyl]-3-methyl-2-oxo-2,3-dihydro-1H-benzimidazol-1-yl}piperidine-2,6-dione] | 4.5 nM | 28 nM |
| COc1ccc([C@]2(CCN(Cc3ccc(C4=C(F)CC(C(=O)N5CCN(Cc6ccc7c8c6CCCn8c(=O)n7C6CCC(=O)NC6=O)CC5)CC4)cc3)CC(C)(C)C(F)(F)F)CCOC(C)(C)C2)cc1 (stereo partly drawn) [BB7, 3-[7-({4-[(6-Fluoro-4′-{[{2-[(4R)-4-(4-methoxyphenyl)-2,2-dimethyltetrahydro-2H-pyran-4-yl]ethyl)(3,3,3-trifluoro-2,2-dimethylpropyl)amino]methyl}-2,3,4,5-tetrahydro[biphenyl]-4-yl)carbonyl]piperazin-1-yl}methyl)-2-oxo-5,6-dihydro-4H-imidazo[4,5,1-ij]quinolin-1(2H)-yl]piperidine-2,6-dione] | 9 nM | 62 nM |
| COc1ccc([C@]2(CCN(Cc3ccc(C4=CC[C@@H](C(=O)N5CCC(Nc6ccc7c8c6OCCn8c(=O)n7C6CCC(=O)NC6=O)CC5)CC4)c(F)c3)CC(C)(C)C(F)(F)F)CCOC(C)(C)C2)cc1 (stereo partly drawn) [BN2, 3-{7-[(1-{[(4S)-2′-Fluoro-4′-{[{2-[(4R)-4-(4-methoxyphenyl)-2,2-dimethyltetrahydro-2H-pyran-4-yl]ethyl}(3,3,3-trifluoro-2,2-dimethylpropyl)amino]methyl}-2,3,4,5-tetrahydro[biphenyl]-4-yl]carbonyl}piperidin-4-yl)amino]-2-oxo-4,5-dihydroimidazo[1,5,4-de][1,4]benzoxazin-1(2H)-yl}piperidine-2,6-dione] | 2.3 nM | 31 nM |
| COc1ccc([C@]2(CCN(Cc3ccc(C4=CCC(CC(=O)NCCNc5ccc6c(c5)n(C)c(=O)n6C5CCC(=O)NC5=O)CC4)cc3)CC(C)(C)C(F)(F)F)CCOC(C)(C)C2)cc1 (stereo partly drawn) [Example Y6, N-(2-{[1-(2,6-Dioxopiperidin-3-yl)-3-methyl-2-oxo-2,3-dihydro-1H-benzimidazol-5-yl]amino}ethyl)-2-(4′-{[{2-[(4R)-4-(4-methoxyphenyl)-2,2-dimethyltetrahydro-2H-pyran-4-yl]ethyl}(3,3,3-trifluoro-2,2-dimethylpropyl)amino]methyl}-2,3,4,5-tetrahydro[biphenyl]-4-yl)acetamide] | 12 nM | 199 nM |
| COc1ccc([C@]2(CCN(Cc3ccc(OC4CC5(CCN(CC(=O)N6CCc7ccc8c(c7C6)n(C)c(=O)n8C6CCC(=O)NC6=O)CC5)C4)cc3)CC(C)(C)C(F)(F)F)CCOC(C)(C)C2)cc1 (stereo partly drawn) [Example AK10, 3-(8-{[2-(4-{[{2-[(4R)-4-(4-Methoxyphenyl)-2,2-dimethyltetrahydro-2H-pyran-4-yl]ethyl}(3,3,3-trifluoro-2,2-dimethylpropyl)amino]methyl}phenoxy)-7-azaspiro[3.5]nonan-7-yl]acetyl}-1-methyl-2-oxo-1,2,6,7,8,9-hexahydro-3H-imidazo[4,5-h]isoquinolin-3-yl)piperidine-2,6-dione] | 4.9 nM | 82 nM |
| COc1ccc([C@]2(CCN(Cc3ccc(C4=CC[C@H](C(=O)N5CCC(Nc6ccc7c8c6OCCn8c(=O)n7C6CCC(=O)NC6=O)CC5)CC4)c(F)c3)CC(C)(C)C(F)(F)F)CCOC(C)(C)C2)cc1 (stereo partly drawn) [BM10, 3-{7-[(1-{[(4R)-2′-Fluoro-4′-{[{2-[(4R)-4-(4-methoxyphenyl)-2,2-dimethyltetrahydro-2H-pyran-4-yl]ethyl)(3,3,3-trifluoro-2,2-dimethylpropyl)amino]methyl}-2,3,4,5-tetrahydro[biphenyl]-4-yl]carbonyl}piperidin-4-yl)amino]-2-oxo-4,5-dihydroimidazo[1,5,4-de][1,4]benzoxazin-1(2H)-yl}piperidine-2,6-dione] | 2.2 nM | 22 nM |
| COc1ccc([C@]2(CCN(Cc3ccc(OC4CC5(CCN(CC(=O)N6CCn7c(=O)n(C8CCC(=O)NC8=O)c8cccc6c87)CC5)C4)cc3)CC(C)(C)C(F)(F)F)CCOC(C)(C)C2)cc1 (stereo partly drawn) [AN5, 3-[6-{[2-(4-{[{2-[(4R)-4-(4-Methoxyphenyl)-2,2-dimethyltetrahydro-2H-pyran-4-yl]ethyl}(3,3,3-trifluoro-2,2-dimethylpropyl)amino]methyl}phenoxy)-7-azaspiro[3.5]nonan-7-yl]acetyl}-2-oxo-5,6-dihydro-4H-imidazo[1,5,4-de]quinoxalin-1(2H)-yl]piperidine-2,6-dione] | 12 nM | 92 nM |

Continued, values first:

| DC50 (SF-1) | GI50 (NCI-H295R cells) | SMILES |
| --- | --- | --- |
| 17 nM | 97 nM | COc1ccc([C@]2(CCN(Cc3ccc(C4=CCC(CN5CCN(C(=O)c6cc7c(cn6)n(C6CCC(=O)NC6=O)c(=O)n7C)CC5)CC4)cc3)CC(C)(C)C(F)(F)F)CCOC(C)(C)C2)cc1 (stereo partly drawn) [BJ6, 3-[6-({4-[(4′-{[{2-[(4R)-4-(4-Methoxyphenyl)-2,2-dimethyltetrahydro-2H-pyran-4-yl]ethyl}(3,3,3-trifluoro-2,2-dimethylpropyl)amino]methyl}-2,3,4,5-tetrahydro[biphenyl]-4-yl)methyl]piperazin-1-yl}carbonyl)-1-methyl-2-oxo-1,2-dihydro-3H-imidazo[4,5-c]pyridin-3-yl]piperidine-2,6-dione] |
| 18 nM | 64 nM | COc1ccc([C@]2(CCN(Cc3ccc(C4=CC[C@H](CN5CCN(C(=O)c6ccc7c8c6OCCn8c(=O)n7C6CCC(=O)NC6=O)CC5)CC4)cc3)CC(C)(C)C(F)(F)F)CCOC(C)(C)C2)cc1 (stereo partly drawn) [BU6, 3-{7-[(4-{[(4R)-4′-{[{2-[(4R)-4-(4-Methoxyphenyl)-2,2-dimethyltetrahydro-2H-pyran-4-yl]ethyl}(3,3,3-trifluoro-2,2-dimethylpropyl)amino]methyl}-2,3,4,5-tetrahydro[biphenyl]-4-yl]methyl}piperazin-1-yl)carbonyl]-2-oxo-4,5-dihydroimidazo[1,5,4-de][1,4]benzoxazin-1(2H)-yl}piperidine-2,6-dione] |
| 6.2 nM | 48 nM | COc1ccc([C@]2(CCN(Cc3ccc(C4=CCC(CN5CCN(C(=O)c6ccc7c(n6)n(C)c(=O)n7C6CCC(=O)NC6=O)CC5)CC4)cc3)CC(C)(C)C(F)(F)F)CCOC(C)(C)C2)cc1 (stereo partly drawn) [BC6, 3-[5-({4-[(4′-{[{2-[(4R)-4-(4-Methoxyphenyl)-2,2-dimethyltetrahydro-2H-pyran-4-yl]ethyl}(3,3,3-trifluoro-2,2-dimethylpropyl)amino]methyl}-2,3,4,5-tetrahydro[biphenyl]-4-yl)methyl]piperazin-1-yl}carbonyl)-3-methyl-2-oxo-2,3-dihydro-1H-imidazo[4,5-b]pyridin-1-yl]piperidine-2,6-dione] |
| 9.2 nM | 84 nM | COc1ccc([C@]2(CCN(Cc3ccc(C4=CC[C@H](CN5CCN(C(=O)c6ccc7c8c6CCCn8c(=O)n7[C@@H]6CCC(=O)NC6=O)CC5)CC4)cc3)CC(C)(C)C(F)(F)F)CCOC(C)(C)C2)cc1 [BG5, (3R)-3-{7-[(4-{[(4R)-4′-{[{2-[(4R)-4-(4-Methoxyphenyl)-2,2-dimethyltetrahydro-2H-pyran-4-yl]ethyl}(3,3,3-trifluoro-2,2-dimethylpropyl)amino]methyl}-2,3,4,5-tetrahydro[biphenyl]-4-yl]methyl}piperazin-1-yl)carbonyl]-2-oxo-5,6-dihydro-4H-imidazo[4,5,1-ij]quinolin-1(2H)-yl}piperidine-2,6-dione] |
| 5.1 nM | 84 nM | COc1ccc([C@]2(CCN(Cc3ccc(C4=CC[C@H](CN5CCN(C(=O)c6ccc7c8c6NCCn8c(=O)n7[C@@H]6CCC(=O)NC6=O)CC5)CC4)cc3)CC(C)(C)C(F)(F)F)CCOC(C)(C)C2)cc1 [CF1, (3R)-3-{7-[(4-{[(4R)-4′-{[{2-[(4R)-4-(4-Methoxyphenyl)-2,2-dimethyltetrahydro-2H-pyran-4-yl]ethyl)(3,3,3-trifluoro-2,2-dimethylpropyl)amino]methyl}-2,3,4,5-tetrahydro[biphenyl]-4-yl]methyl}piperazin-1-yl)carbonyl]-2-oxo-5,6-dihydro-4H-imidazo[1,5,4-de]quinoxalin-1(2H)-yl}piperidine-2,6-dione] |
